ChEMBL document CHEMBL1148381, “Application of CoMFA and CoMSIA 3D-QSAR and docking studies in optimization of mercaptobenzenesulfonamides as HIV-1 integrase inhibitors” (J Med Chem, 2004)

Assays:
[1] = molecular target: T1, Human immunodeficiency virus type 1 integrase (Human immunodeficiency virus 1, UniProt Q7ZJM1); assay: Inhibitory activity against 3' processing by HIV integrase
[2] = molecular target: T1, Human immunodeficiency virus type 1 integrase; assay: Inhibitory activity against DNA strand transfer by HIV integrase

T1 sequence (Q7ZJM1 whole entry): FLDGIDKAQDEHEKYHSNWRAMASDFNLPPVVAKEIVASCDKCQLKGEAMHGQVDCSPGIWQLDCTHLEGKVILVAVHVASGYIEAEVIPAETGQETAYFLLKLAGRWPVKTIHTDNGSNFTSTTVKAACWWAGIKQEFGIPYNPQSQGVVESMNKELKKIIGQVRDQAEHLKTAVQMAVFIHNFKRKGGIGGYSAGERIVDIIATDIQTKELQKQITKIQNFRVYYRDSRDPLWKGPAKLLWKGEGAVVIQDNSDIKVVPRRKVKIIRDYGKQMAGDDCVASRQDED

SMILES: COc1cc(Nc2nnc(NS(=O)(=O)c3cc(C)c(Cl)cc3S)[nH]2)cc(OC)c1OC
- IC50 [1]: 15.5 µM
- IC50 [2]: 16.6 µM

SMILES: Cc1cc(S(=O)(=O)Nc2nnc3cnc4ccccc4n23)c(S)cc1Cl
- IC50 [1]: 31.6 µM
- IC50 [2]: 8.32 µM

SMILES: CC(C)Cn1cnnc1NS(=O)(=O)c1cc(C(=O)Nc2ccc(Cl)cc2)c(Cl)cc1S
- IC50 [1]: 38 µM
- IC50 [2]: 39.8 µM

SMILES: Cc1ccc(NC(=O)c2cc(S(=O)(=O)Nc3nncn3Cc3ccccc3)c(S)cc2Cl)cc1
- IC50 [1]: 8.91 µM
- IC50 [2]: 7.94 µM

SMILES: Cc1cc(S(=O)(=O)Nc2n[nH]c(-c3ccc(Cl)cn3)n2)c(S)cc1Cl
- IC50 [1]: 8.91 µM
- IC50 [2]: 10.2 µM

SMILES: Cc1cc(S(=O)(=O)NC(=NN)Nc2ccc(Cl)cc2)c(S)cc1Cl
- IC50 [1]: 3.55 µM
- IC50 [2]: 3.55 µM

SMILES: Cc1cc(S(=O)(=O)Nc2nnc(Nc3ccccc3)[nH]2)c(S)cc1Cl
- IC50 [1]: 16.2 µM
- IC50 [2]: 12.6 µM

SMILES: Cc1cc(S(=O)(=O)Nc2nc(N)n(-c3ccccn3)n2)c(S)cc1Cl
- IC50 [1]: 14.5 µM
- IC50 [2]: 22.9 µM

SMILES: Cc1cc(S(=O)(=O)Nc2nnc3ccc4ccccc4n23)c(S)cc1Cl
- IC50 [1]: 12.9 µM
- IC50 [2]: 7.41 µM

SMILES: CCN(c1ccccc1)c1nc(N)nc(NS(=O)(=O)c2cc(C)c(Cl)cc2S)n1
- IC50 [1]: 17.4 µM
- IC50 [2]: 24.5 µM

SMILES: O=S(=O)(Nc1nnc2c3ccccc3ccn12)c1ccc(F)cc1S
- IC50 [1]: 51.3 µM
- IC50 [2]: 47.9 µM

SMILES: O=C(CC(Sc1[nH]cnc2ncnc1-2)Sc1[nH]cnc2ncnc1-2)Nc1ccc(S(=O)(=O)Nc2ccc(/N=N/c3ccccc3)cc2)cc1
- IC50 [1]: 141 µM
- IC50 [2]: 112 µM

SMILES: COc1ccc(Nc2n[nH]c(NS(=O)(=O)c3cc(C)c(Cl)cc3S)n2)cc1
- IC50 [1]: 15.5 µM
- IC50 [2]: 14.1 µM

SMILES: CC(=O)Oc1cc(S(=O)(=O)Nc2nnc(Nc3ccc(C)cc3)[nH]2)c(S)cc1Cl
- IC50 [1]: 7.59 µM
- IC50 [2]: 10 µM

SMILES: CCCCn1cnnc1NS(=O)(=O)c1cc(C(=O)NCc2ccccc2)c(Cl)cc1S
- IC50 [1]: 89.1 µM
- IC50 [2]: 70.8 µM

SMILES: Cc1cc2c(cc1Cl)SC(C1C(=O)NC(=S)NC1=O)NS2(=O)=O (centres undefined)
- IC50 [1]: 60.3 µM
- IC50 [2]: 50.1 µM

SMILES: Cc1cc(C(F)(F)F)cc(-n2nc(NS(=O)(=O)c3cc(C)c(Cl)cc3S)nc2N)n1
- IC50 [1]: 9.33 µM
- IC50 [2]: 6.31 µM

SMILES: Cc1cc(S(=O)(=O)Nc2nnc3c(Cl)cc(C(F)(F)F)cn23)c(S)cc1Cl
- IC50 [1]: 17.8 µM
- IC50 [2]: 20.9 µM

SMILES: COC(=O)CSc1cc(Cl)c(C)cc1S(=O)(=O)Nc1nnc(N)[nH]1
- IC50 [1]: 200 µM

SMILES: Cc1cc(S(=O)(=O)Nc2nc(N)nc3nc4ccccc4n23)c(S)cc1Cl
- IC50 [1]: 9.77 µM
- IC50 [2]: 7.76 µM

SMILES: CC1=NNC(=O)C1/N=N/c1ccc(S(=O)(=O)Nc2nccs2)cc1 (centres undefined)
- IC50 [1]: 70.8 µM
- IC50 [2]: 61.7 µM

SMILES: Cc1cc(S(=O)(=O)Nc2nnc3c4c(C)csc4ncn23)c(S)cc1Cl
- IC50 [1]: 3.63 µM
- IC50 [2]: 3.47 µM

SMILES: Cc1cc(S(=O)(=O)NC2=NCCCN2)c(S)cc1Cl
- IC50 [1]: 148 µM
- IC50 [2]: 145 µM

SMILES: Cc1cc2c(cc1Cl)SC(C1C(=O)NC(=O)NC1=O)NS2(=O)=O (centres undefined)
- IC50 [1]: 60.3 µM
- IC50 [2]: 60.3 µM

SMILES: COc1cccc(Nc2n[nH]c(NS(=O)(=O)c3cc(C)c(Cl)cc3S)n2)c1
- IC50 [1]: 6.31 µM
- IC50 [2]: 20.9 µM

SMILES: O=C(Nc1ccc(Cl)cc1)c1cc(S(=O)(=O)Nc2nncn2-c2ccc(F)cc2)c(S)cc1Cl
- IC50 [1]: 37.2 µM
- IC50 [2]: 37.2 µM

SMILES: Cc1ccc(Nc2n[nH]c(NS(=O)(=O)c3cc(C)c(Cl)cc3S)n2)cc1
- IC50 [1]: 22.4 µM
- IC50 [2]: 24 µM

SMILES: CCC(C)n1cnnc1NS(=O)(=O)c1cc(C(=O)Nc2ccc(C)cc2)c(Cl)cc1S (centres undefined)
- IC50 [1]: 200 µM
- IC50 [2]: 112 µM

SMILES: O=S(=O)(Nc1nccs1)c1ccc(/N=N/c2cnc(O)c(O)c2)cc1
- IC50 [1]: 22.9 µM
- IC50 [2]: 20.9 µM

SMILES: CC(=O)C(/N=N/c1ccc(S(=O)(=O)Nc2ccccn2)cc1)C(=O)Nc1ccccc1C (centres undefined)
- IC50 [1]: 66.1 µM
- IC50 [2]: 72.4 µM

SMILES: Cc1ccc(Nc2nc(NS(=O)(=O)c3cc(C)c(Cl)cc3S)n(C)n2)cc1
- IC50 [1]: 23.4 µM
- IC50 [2]: 19.1 µM

SMILES: Cc1cc(S(=O)(=O)Nc2nc3ccccc3nc2-c2ccc(Br)cc2)c(S)cc1Cl
- IC50 [1]: 12.3 µM
- IC50 [2]: 7.94 µM

SMILES: NS(=O)(=O)c1ccc(/N=N/C2Sc3nc4ccccc4n3C2=O)cc1 (centres undefined)
- IC50 [1]: 209 µM
- IC50 [2]: 126 µM

SMILES: Cc1ccc(-n2cnnc2NS(=O)(=O)c2cc(C(=O)Nc3ccccc3)c(Cl)cc2S)cc1
- IC50 [1]: 6.03 µM
- IC50 [2]: 10 µM

SMILES: CCCn1cnnc1NS(=O)(=O)c1cc(C(=O)Nc2ccc(C)cc2)c(Cl)cc1SCC(=O)O
- IC50 [1]: 43.7 µM
- IC50 [2]: 43.7 µM

SMILES: CCCn1cnnc1NS(=O)(=O)c1cc(C(=O)Nc2ccc(C)cc2)c(Cl)cc1S
- IC50 [1]: 40.7 µM
- IC50 [2]: 39.8 µM

SMILES: O=S(=O)(Nc1nnc2c3ccccc3cnn12)c1ccc(Cl)cc1S
- IC50 [1]: 28.8 µM
- IC50 [2]: 38.9 µM

SMILES: O=C1NC(=S)SC1NS(=O)(=O)c1ccc(-c2ncccn2)cc1 (centres undefined)
- IC50 [1]: 28.8 µM
- IC50 [2]: 14.1 µM

SMILES: CCCCn1cnnc1NS(=O)(=O)c1cc(C(N)=O)c(Cl)cc1SCC(=O)O
- IC50 [1]: 417 µM
- IC50 [2]: 417 µM

SMILES: Cc1cc2c(cc1Cl)SC(C(C#N)C(=O)c1ccccc1)NS2(=O)=O (centres undefined)
- IC50 [1]: 200 µM
- IC50 [2]: 112 µM

SMILES: CCCCn1cnnc1NS(=O)(=O)c1cc(C(=O)Nc2ccc(C)cc2)c(Cl)cc1S
- IC50 [1]: 60.3 µM
- IC50 [2]: 33.9 µM

SMILES: Cc1cc(S(=O)(=O)Nc2nc(N)n(-c3ccccc3)n2)c(S)cc1Cl
- IC50 [1]: 10.7 µM
- IC50 [2]: 13.2 µM

SMILES: O=S(=O)(Nc1nnc2n1-c1ccccc1CC2)c1ccc(Cl)cc1S
- IC50 [1]: 21.9 µM
- IC50 [2]: 19.5 µM

SMILES: Cc1cc(S(=O)(=O)NC(=NN)NNc2cccc(C(F)(F)F)n2)c(S)cc1Cl
- IC50 [1]: 87.1 µM
- IC50 [2]: 100 µM

SMILES: Cc1cc(S(=O)(=O)Nc2nc3ccccc3nc2-c2cccc([N+](=O)[O-])c2)c(S)cc1Cl
- IC50 [1]: 15.1 µM
- IC50 [2]: 7.94 µM

SMILES: Cc1cc2nc3nc(N)nc(NS(=O)(=O)c4cc(C)c(Cl)cc4S)n3c2cc1C
- IC50 [1]: 5.5 µM
- IC50 [2]: 4.27 µM

SMILES: Cc1cc2c(cc1Cl)SC(C(C#N)C#N)NS2(=O)=O (centres undefined)
- IC50 [1]: 708 µM
- IC50 [2]: 603 µM

SMILES: O=C(O)c1cc2ccccc2c(/N=N/c2ccc(S(=O)(=O)Nc3nccs3)cc2)c1O
- IC50 [1]: 21.4 µM
- IC50 [2]: 42.7 µM

SMILES: Cc1cc(S(=O)(=O)Nc2nnc3c(C(F)(F)F)cc(Cl)cn23)c(S)cc1Cl
- IC50 [1]: 10.7 µM
- IC50 [2]: 24 µM

SMILES: Cc1ccc(NC(=O)c2cc(S(=O)(=O)Nc3nncn3CC(C)C)c(S)cc2Cl)cc1
- IC50 [1]: 75.9 µM
- IC50 [2]: 100 µM

SMILES: O=S(=O)(Nc1ccccn1)c1ccc(/N=N/c2cnc(O)c(O)c2)cc1
- IC50 [1]: 60.3 µM
- IC50 [2]: 58.9 µM

SMILES: CC1N=NC(c2ccc(S(=O)(=O)NC3SC(=S)NC3=O)cc2)S1 (centres undefined)
- IC50 [1]: 24 µM
- IC50 [2]: 19.1 µM

SMILES: Cc1cnc(NS(=O)(=O)c2ccc(/N=N/c3cc4ccccc4cc3O)cc2)s1
- IC50 [1]: 38.9 µM
- IC50 [2]: 50.1 µM

SMILES: Cc1cc(S(=O)(=O)Nc2nnc3c4scc(C)c4ncn23)c(S)cc1Cl
- IC50 [1]: 9.33 µM
- IC50 [2]: 7.41 µM

SMILES: CCOC(=O)C(C#N)C1NS(=O)(=O)c2cc(C)c(Cl)cc2S1 (centres undefined)
- IC50 [1]: 331 µM
- IC50 [2]: 112 µM

SMILES: O=C(Nc1ccccc1)c1cc(S(=O)(=O)Nc2nncn2-c2ccc(Cl)cc2)c(S)cc1Cl
- IC50 [1]: 6.03 µM
- IC50 [2]: 12 µM

SMILES: Cc1cc(S(=O)(=O)Nc2nc(N)nc(N(C)C)n2)c(S)cc1Cl
- IC50 [1]: 77.6 µM
- IC50 [2]: 41.7 µM

SMILES: O=C(Nc1ccc(F)cc1)c1cc(S(=O)(=O)Nc2nncn2-c2ccc(F)cc2)c(S)cc1Cl
- IC50 [1]: 79.4 µM
- IC50 [2]: 37.2 µM

SMILES: O=C(Nc1ccccc1)c1cc(S(=O)(=O)Nc2nncn2-c2ccc(F)cc2)c(S)cc1Cl
- IC50 [1]: 45.7 µM
- IC50 [2]: 50.1 µM

SMILES: Cc1cc(S(=O)(=O)Nc2nc3ccccc3[nH]2)c(S)cc1Cl
- IC50 [1]: 38.9 µM
- IC50 [2]: 43.7 µM

SMILES: Cc1cc(S(=O)(=O)Nc2nnc3ccccn23)c(S)cc1Cl
- IC50 [1]: 123 µM
- IC50 [2]: 110 µM

SMILES: Cc1cc(S(=O)(=O)Nc2nnc3cc(C(F)(F)F)cc(C)n23)c(S)cc1Cl
- IC50 [1]: 18.6 µM
- IC50 [2]: 11 µM

SMILES: Cc1cc(S(=O)(=O)Nc2nnc3c4ccccc4ccn23)c(S)cc1Cl
- IC50 [1]: 13.2 µM
- IC50 [2]: 10.7 µM

SMILES: Cc1cc(S(=O)(=O)Nc2nc(Nc3ccccc3)nn2C)c(S)cc1Cl
- IC50 [1]: 27.5 µM
- IC50 [2]: 15.8 µM

SMILES: CCCCn1cnnc1NS(=O)(=O)c1cc(C(=O)Nc2ccc(Cl)cc2)c(Cl)cc1S
- IC50 [1]: 36.3 µM
- IC50 [2]: 43.7 µM

SMILES: Cc1cc(S(=O)(=O)Nc2nc3ccccc3nc2-c2ccc(Cl)cc2)c(S)cc1Cl
- IC50 [1]: 20 µM
- IC50 [2]: 12 µM

SMILES: Cc1ccc(-n2cnnc2NS(=O)(=O)c2cc(C(=O)Nc3ccc(Cl)cc3)c(Cl)cc2S)cc1
- IC50 [1]: 3.98 µM
- IC50 [2]: 3.98 µM

SMILES: CC1=NN(c2ccccc2)C(=O)C1/N=N/c1ccc(S(=O)(=O)Nc2scc(C)c2C)cc1 (centres undefined)
- IC50 [1]: 129 µM
- IC50 [2]: 107 µM

SMILES: Cc1cc(S(=O)(=O)Nc2nc(Nc3ccc(Cl)cc3)nn2C)c(S)cc1Cl
- IC50 [1]: 16.2 µM
- IC50 [2]: 17.8 µM

SMILES: Cc1ccnc(NS(=O)(=O)c2ccc(/N=N/c3cc4ccccc4c(C(=O)O)c3O)cc2)n1
- IC50 [1]: 19.5 µM
- IC50 [2]: 32.4 µM
